PubChem BioAssay AID2060614 (Molecular Pharmacology Branch, DTP, NCI, 2025)

Test system: 598228-144-R-J1-PDC complex spheroids, viability
Assay: Anticancer human tumor 598228-144-R-J1-PDC patient-derived serous endometrial adenocarcinoma cell line growth inhibition [CLK]
Settings: for IC50: curve of first compound; for viability, T/C: stronger effect = lower value; active = viability on the fitted dose curve at most 10% of control; inactive = the rest
Outline: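 Patient-derived tumor cells grown as complex spheroids with HUVEC endothelial cells and mesenchymal stem cells, treated with drug combinations. Concentrations descend in half-log steps from near clinical Cmax, or from 10 microM if Cmax unknown.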

[1] = second compound 0.0316 µM, first compound 0.0316 µM
[2] = second compound 0.0316 µM, first compound 0.1 µM
[3] = second compound 0.0316 µM, first compound 0.316 µM
[4] = second compound 0.0316 µM, first compound 1 µM
[5] = second compound 0.0316 µM, first compound 3.16 µM
[6] = second compound 0.0316 µM, first compound 10 µM
[7] = second compound 0.1 µM, first compound 0.0316 µM
[8] = second compound 0.1 µM, first compound 0.1 µM
[9] = second compound 0.1 µM, first compound 0.316 µM
[10] = second compound 0.1 µM, first compound 1 µM
[11] = second compound 0.1 µM, first compound 3.16 µM
[12] = second compound 0.1 µM, first compound 10 µM
[13] = second compound 0.316 µM, first compound 0.0316 µM
[14] = second compound 0.316 µM, first compound 0.1 µM
[15] = second compound 0.316 µM, first compound 0.316 µM
[16] = second compound 0.316 µM, first compound 1 µM
[17] = second compound 0.316 µM, first compound 3.16 µM
[18] = second compound 0.316 µM, first compound 10 µM
[19] = second compound 1 µM, first compound 0.0316 µM
[20] = second compound 1 µM, first compound 0.1 µM
[21] = second compound 1 µM, first compound 0.316 µM
[22] = second compound 1 µM, first compound 1 µM
[23] = second compound 1 µM, first compound 3.16 µM
[24] = second compound 1 µM, first compound 10 µM
[25] = second compound 3.16 µM, first compound 0.0316 µM
[26] = second compound 3.16 µM, first compound 0.1 µM
[27] = second compound 3.16 µM, first compound 0.316 µM
[28] = second compound 3.16 µM, first compound 1 µM
[29] = second compound 3.16 µM, first compound 3.16 µM
[30] = second compound 3.16 µM, first compound 10 µM
[31] = second compound 10 µM, first compound 0.0316 µM
[32] = second compound 10 µM, first compound 0.1 µM
[33] = second compound 10 µM, first compound 0.316 µM
[34] = second compound 10 µM, first compound 1 µM
[35] = second compound 10 µM, first compound 3.16 µM
[36] = second compound 10 µM, first compound 10 µM
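Note: spheroids exposed to compounds for seven days before readout.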
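Throughout, for viability, T/C: 100% = DMSO vehicle control wells.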

CC(=O)O[C@H]1C(=O)[C@@]2(C)[C@H]([C@H](OC(=O)c3ccccc3)[C@]3(O)C[C@H](OC(=O)[C@H](O)[C@@H](NC(=O)c4ccccc4)c4ccccc4)C(C)=C1C3(C)C)[C@]1(OC(C)=O)CO[C@@H]1C[C@@H]2O + CN1CCN(c2cc(C(=O)Nc3cc4cc(-c5cnn(C)c5)ccc4cn3)ccn2)CC1
inactive: viability, T/C [1] 40.8% | viability, T/C [2] 44.8% | viability, T/C [3] 32.3% | viability, T/C [4] 34.3% | viability, T/C [5] 33.1% | viability, T/C [6] 37.7% | viability, T/C [7] 72.7% | viability, T/C [8] 61.2% | viability, T/C [9] 58.8% | viability, T/C [10] 64.5% | viability, T/C [11] 51.6% | viability, T/C [12] 51.1% | viability, T/C [13] 19% | viability, T/C [14] 15.1% | viability, T/C [15] 20.1% | viability, T/C [16] 14.2% | viability, T/C [17] 18% | viability, T/C [18] 18.5%
< 0.0316 µM: IC50 (second compound 0.0316 µM) | IC50 (second compound 0.316 µM) | IC50 (second compound 1 µM) | IC50 (second compound 3.16 µM) | IC50 (second compound 10 µM)
> 10 µM: IC50 (second compound 0.1 µM)
active: viability, T/C [19] 1.6% | viability, T/C [20] 1.9% | viability, T/C [21] 4.17% | viability, T/C [22] 1.92% | viability, T/C [23] 2.39% | viability, T/C [24] 1.8% | viability, T/C [25] 1.6% | viability, T/C [26] 3.09% | viability, T/C [27] 2.8% | viability, T/C [28] 1.31% | viability, T/C [29] 1.95% | viability, T/C [30] 2.83% | viability, T/C [31] 2.83% | viability, T/C [32] 0.86% | viability, T/C [33] 2.92% | viability, T/C [34] 1.09% | viability, T/C [35] 2.45% | viability, T/C [36] 2.11%

COc1ccc([C@@H](O)c2cc(-c3ncnc4cc(N5CCOCC5)ccc34)c(F)cc2Cl)nn1 + CN1CCN(c2cc(C(=O)Nc3cc4cc(-c5cnn(C)c5)ccc4cn3)ccn2)CC1
active: viability, T/C [17] 7.76% | viability, T/C [18] 5.23% | viability, T/C [19] 1.49% | viability, T/C [20] 1.33% | viability, T/C [21] 1.57% | viability, T/C [22] 1.3% | viability, T/C [23] 1.12% | viability, T/C [24] 3.63% | viability, T/C [25] 1.56% | viability, T/C [26] 2.15% | viability, T/C [27] 1.78% | viability, T/C [28] 2.12% | viability, T/C [29] 1.65% | viability, T/C [30] 2.04% | viability, T/C [31] 0.95% | viability, T/C [32] 0.79% | viability, T/C [33] 4.21% | viability, T/C [34] 1.31% | viability, T/C [35] 3.59% | viability, T/C [36] 3.19%
< 0.0316 µM: IC50 (second compound 0.316 µM) | IC50 (second compound 1 µM) | IC50 (second compound 3.16 µM) | IC50 (second compound 10 µM)
8.4 µM: IC50 (second compound 0.0316 µM)
5.36 µM: IC50 (second compound 0.1 µM)
inactive: viability, T/C [1] 122% | viability, T/C [2] 123% | viability, T/C [3] 105% | viability, T/C [4] 92.7% | viability, T/C [5] 65.3% | viability, T/C [6] 47.4% | viability, T/C [7] 123% | viability, T/C [8] 123% | viability, T/C [9] 89% | viability, T/C [10] 88.8% | viability, T/C [11] 59.5% | viability, T/C [12] 36.8% | viability, T/C [13] 15.2% | viability, T/C [14] 15.1% | viability, T/C [15] 15.9% | viability, T/C [16] 9.86%

COc1cccc2c1C(=O)c1c(O)c3c(c(O)c1C2=O)CC(O)(C(=O)CO)CC3OC1CC(N)C(O)C(C)O1 (stereo not given) + CN1CCN(c2cc(C(=O)Nc3cc4cc(-c5cnn(C)c5)ccc4cn3)ccn2)CC1
active: viability, T/C [4] 7.36% | viability, T/C [5] 0.34% | viability, T/C [6] 0.49% | viability, T/C [10] 3.45% | viability, T/C [11] 0.34% | viability, T/C [12] 1.62% | viability, T/C [14] 14.6% | viability, T/C [15] 3.54% | viability, T/C [16] 0.66% | viability, T/C [17] 0.34% | viability, T/C [18] 2.75% | viability, T/C [19] 1.14% | viability, T/C [20] 0.59% | viability, T/C [21] 1% | viability, T/C [22] 0.68% | viability, T/C [23] 0.96% | viability, T/C [24] 2.88% | viability, T/C [25] 1.47% | viability, T/C [26] 3.06% | viability, T/C [27] 0.97% | viability, T/C [28] 0.79% | viability, T/C [29] 1.31% | viability, T/C [30] 4.32% | viability, T/C [31] 0.73% | viability, T/C [32] 0.59% | viability, T/C [33] 3.86% | viability, T/C [34] 0.35% | viability, T/C [35] 0.23% | viability, T/C [36] 3.87%
0.263 µM: IC50 (second compound 0.0316 µM)
inactive: viability, T/C [1] 114% | viability, T/C [2] 116% | viability, T/C [3] 37.5% | viability, T/C [7] 150% | viability, T/C [8] 109% | viability, T/C [9] 24.6% | viability, T/C [13] 14.6%
0.224 µM: IC50 (second compound 0.1 µM)
< 0.0316 µM: IC50 (second compound 0.316 µM) | IC50 (second compound 1 µM) | IC50 (second compound 3.16 µM) | IC50 (second compound 10 µM)

CCCS(=O)(=O)Nc1ccc(F)c(C(=O)c2c[nH]c3ncc(-c4ccc(Cl)cc4)cc23)c1F + CNC(=O)c1ccc(Nc2nc(OC3CCCC3)c3c(-c4ccc5nc(C)oc5c4)c[nH]c3n2)c(OC)c1
inactive: viability, T/C [1] 117% | viability, T/C [2] 104% | viability, T/C [3] 113% | viability, T/C [4] 105% | viability, T/C [5] 93.5% | viability, T/C [6] 49.5% | viability, T/C [7] 102% | viability, T/C [8] 101% | viability, T/C [9] 102% | viability, T/C [10] 111% | viability, T/C [11] 115% | viability, T/C [12] 51.6% | viability, T/C [13] 99.4% | viability, T/C [14] 105% | viability, T/C [15] 87.2% | viability, T/C [16] 100% | viability, T/C [17] 83.5% | viability, T/C [18] 48.6% | viability, T/C [19] 96.5% | viability, T/C [20] 104% | viability, T/C [21] 94.8% | viability, T/C [22] 99.3% | viability, T/C [23] 88.4% | viability, T/C [24] 57.1% | viability, T/C [25] 86.7% | viability, T/C [26] 83.9% | viability, T/C [27] 91.7% | viability, T/C [28] 102% | viability, T/C [29] 83.3% | viability, T/C [30] 55% | viability, T/C [31] 89% | viability, T/C [32] 82.5% | viability, T/C [33] 92.5% | viability, T/C [34] 99.6% | viability, T/C [35] 67.5% | viability, T/C [36] 48.4%
9.99 µM: IC50 (second compound 0.0316 µM)
> 10 µM: IC50 (second compound 0.1 µM) | IC50 (second compound 1 µM) | IC50 (second compound 3.16 µM)
9.06 µM: IC50 (second compound 10 µM)
9.64 µM: IC50 (second compound 0.316 µM)

COC1C=CCC(C)C(C)S(=O)(=O)NC(=O)c2ccc3c(c2)N(CC2CCC21)CC1(CCCc2cc(Cl)ccc21)CO3 (stereo not given) + CNC(=O)c1ccc(Nc2nc(OC3CCCC3)c3c(-c4ccc5nc(C)oc5c4)c[nH]c3n2)c(OC)c1
2.59 µM: IC50 (second compound 0.1 µM)
2.72 µM: IC50 (second compound 1 µM)
2.81 µM: IC50 (second compound 10 µM)
3.22 µM: IC50 (second compound 0.0316 µM)
2.01 µM: IC50 (second compound 3.16 µM)
1.13 µM: IC50 (second compound 0.316 µM)
inactive: viability, T/C [1] 111% | viability, T/C [2] 108% | viability, T/C [3] 81.7% | viability, T/C [4] 69.3% | viability, T/C [5] 54.9% | viability, T/C [6] 25.3% | viability, T/C [7] 105% | viability, T/C [8] 96.9% | viability, T/C [9] 61.7% | viability, T/C [10] 70.6% | viability, T/C [11] 59.6% | viability, T/C [12] 22.9% | viability, T/C [13] 102% | viability, T/C [14] 91.1% | viability, T/C [15] 60.5% | viability, T/C [16] 53.9% | viability, T/C [17] 42.5% | viability, T/C [18] 31.5% | viability, T/C [19] 99% | viability, T/C [20] 82.8% | viability, T/C [21] 65.9% | viability, T/C [22] 57.8% | viability, T/C [23] 55.5% | viability, T/C [24] 37.2% | viability, T/C [25] 92.4% | viability, T/C [26] 78.8% | viability, T/C [27] 67.3% | viability, T/C [28] 54.9% | viability, T/C [29] 55.3% | viability, T/C [30] 25.1% | viability, T/C [31] 86.5% | viability, T/C [32] 83.8% | viability, T/C [33] 67.2% | viability, T/C [34] 51.9% | viability, T/C [35] 58.3% | viability, T/C [36] 35.4%
